Measurements taken from ChEMBL document CHEMBL3217756, “Biological and computational evaluation of an oxadiazole derivative (MD77) as a new lead for direct STAT3 inhibitors” (Medchemcomm, 2012).

System: BT-549
Assay: Cytotoxicity against human BT549 cells after 48 hrs by sulforhodamine B assay
Assay type: functional
Conditions: BT-549, 48 h

## O=C(Nc1nonc1-c1ccc(Cl)cc1)c1ccc(C(F)(F)F)cc1
read-out: GI50
  GI50: 2.22 µM
read-out: LC50 (the source's name)
  CC50: > 100 µM
read-out: TGI
  TGI: 7.66 µM
read-out: pGI50 (converted)
  GI50: 2.24 µM
read-out: pLC50 (the source's name) (converted)
  CC50: > 100 µM
read-out: pTGI (converted)
  TGI: 7.59 µM
